In patent US20230398125A1, “TREATING HEPATITIS” (Albireo AB, priority 2022, published 2023):
Where a name gives a salt, the structure may show the parent alone. Read-outs that look alike come from different tables or passages of the source.

Tests used:
[1] = Oral pharmacokinetics of Compound 2 in mice, rats and dogs; format: in vivo; details: across all species
Procedure: (§1) NTCP and the related BA transporter apical sodium-dependent BA transporter (ASBT) from human were expressed in cell lines. Inhibition by Compound 2 was studied using [^3]taurocholate as substrate. Cryopreserved human hepatocytes infected with a clinical isolate of HBV were used for infection experiments. Two female non-human primates (NHPs) were dosed with Compound 2 via oral gavage at dose levels of Compound 2 ranging between 3-30 mg/kg once daily for 5 days. Total serum, urine, and fecal BAs were analyzed enzymatically and Compound 2 plasma concentrations were assessed via liquid chromatography-tandem mass spectrometry. The oral pharmacokinetics of Compound 2 was also studied in mice, rats, and dogs.

[2] = molecular target: T1, ASBT (Homo sapiens, UniProt Q12908); test: [3H]taurocholate uptake in cell lines expressing human ASBT (Compound 2); format: cell-based
T1 construct: expressed in transfected cells
T1 sequence (Q12908 1-348): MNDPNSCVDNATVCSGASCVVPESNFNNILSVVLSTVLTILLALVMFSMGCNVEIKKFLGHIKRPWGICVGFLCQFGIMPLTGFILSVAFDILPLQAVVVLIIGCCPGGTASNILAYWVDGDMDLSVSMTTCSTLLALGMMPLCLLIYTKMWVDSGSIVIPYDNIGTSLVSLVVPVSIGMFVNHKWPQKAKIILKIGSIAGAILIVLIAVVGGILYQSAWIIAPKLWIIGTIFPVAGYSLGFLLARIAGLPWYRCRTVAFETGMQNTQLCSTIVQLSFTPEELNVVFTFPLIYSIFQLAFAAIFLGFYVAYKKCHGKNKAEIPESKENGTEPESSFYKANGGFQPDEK
Procedure: as §1

[3] = Plasma concentrations of Compound 2 in non-human primates; format: in vivo; details: NHPs, 3-30 mg/kg oral once daily for 5 days
Procedure: as §1

[4] = tested on: HBV (clinical isolate); test: HBV infection of cryopreserved human hepatocytes (Compound 2); format: cell-based; details: Hepatitis B virus, Hepatocyte
Procedure: as §1

[5] = tested on: human hepatocytes; test: Cell viability of human hepatocytes (Compound 2); format: cell-based
[6] = molecular target: T2, Human NTCP (Homo sapiens, UniProt Q14973); test: [3H]taurocholate uptake in cell lines expressing human NTCP (Compound 2); format: cell-based
T2 construct: expressed in transfected cells; peptide purchased from Pharmaron
T2 sequence (Q14973 1-349): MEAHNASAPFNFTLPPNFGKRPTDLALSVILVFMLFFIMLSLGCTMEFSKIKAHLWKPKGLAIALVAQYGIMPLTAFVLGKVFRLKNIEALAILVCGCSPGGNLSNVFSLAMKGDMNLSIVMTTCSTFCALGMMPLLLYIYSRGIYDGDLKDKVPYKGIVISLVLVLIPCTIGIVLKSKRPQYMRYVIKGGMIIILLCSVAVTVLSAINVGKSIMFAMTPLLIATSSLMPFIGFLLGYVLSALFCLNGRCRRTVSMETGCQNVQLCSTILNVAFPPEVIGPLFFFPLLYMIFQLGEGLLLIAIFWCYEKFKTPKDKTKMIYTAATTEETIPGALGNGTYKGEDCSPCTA
Procedure: as §1

[7] = Serum, urine and fecal bile acids and C4 in non-human primates after oral dosing; format: in vivo; details: NHPs
Procedure: as §1

[8] = XTT cell toxicity in primary human hepatocytes; format: cell-based; details: human, primary human hepatocytes, read-out: TC50
Procedure: Multiplicity of Infection (MOI) is defined as the number of HBV genome equivalents, as determined by the qPCR quantitation, added per cell in the respective growth format. The overnight media was removed from the cells and replaced with 190 μL of new, serum-free HI media/4% PEG8000 and 10 μL of the diluted virus stock (HepG2 AD38 genotype D) for a MOI of 500. Medium alone was added to the cells containing compound for the parallel cytotoxicity evaluation. After 18 hours of virus infection, the cells were gently washed five times with DPBS, followed by a new addition of 200 μL HI media containing compounds on day 1, day 4 and day 7 post-infection. In one set of experiments (Study #01), the effect of giving compound 18 h prior to infection, versus 18 h post-infection was studied. The supernatant removed from the cytotoxicity plates at each medium change was stored at −20° C. for shipment to the client. The supernatant was collected at 10 days post infection and stored at −20° C. for total extracellular HBV DNA copy number to be quantitatively determined by qPCR. Cell viability was measured by XTT tetrazolium dye at day 10 for the cytotoxicity plates.
Following incubation at 37° C. in a 5% CO2 incubator for ten days, the test plates were stained with the tetrazolium dye XTT (2,3-bis(2-methoxy-4-nitro-5-sulfophenyl}-5-[(phenylamino)carbonyl]-2H-tetrazolium hydroxide). XTT-tetrazolium was metabolized by the mitochondrial enzymes of metabolically active cells to a soluble formazan product. XTT solution was prepared daily as a stock of 1 mg/mL in RPMI1640. Phenazine methosulfate (PMS) solution was prepared at 0.15 mg/mL in PBS and stored in the dark at −20° C.
XTT/PMS stock was prepared immediately before use by adding 40 μL of PMS per mL of XTT solution. Fifty microliters of XTT/PMS were added to each well of the plate and the plate was re-incubated for 4 hours at 37° C. Plates were sealed with adhesive plate sealers and shaken gently or inverted several times to mix the soluble formazan product and the plate was read spectrophotometrically at 450/650 nm with a Molecular Devices Vmax plate reader.
Each concentration of inhibitor and controls were analyzed in triplicate for HBV DNA copies and for cellular toxicity, respectively. From control wells without inhibitor, the mean of these three replicates was calculated and the HBV DNA mean was set to 100% viral control and the XTT mean was set to 100% cell viability. The effect of compound was then expressed as % of viral control and % cell viability, respectively.

[9] = tested on: HBV (HepG2 AD38 genotype D); test: HBV infection of primary human hepatocytes, extracellular HBV DNA by qPCR; format: cell-based, hepatitis B virus; details: for EC50: Hepatitis B virus, read-out: EC50

For `CCCCC1CN(c2ccc(F)cc2)c2cc(SC)c(OCC(C)(C)C(=O)O)cc2S(=O)(=O)N1C` (stereo not drawn) [Compound 2, 3-((3-butyl-5-(4-fluorophenyl)-2-methyl-7-(methylthio)-1,1-dioxido-2,3,4,5-tetrahydro-1,2,5-benzothiadiazepin-8-yl)oxy)-2,2-dimethylpropanoic acid], the oral bioavailability [1] was “Good oral bioavailability”, the IC50 [2] was 193 nM and the “plasma exposure versus dose” value [3] was “increased with dose”. For the same molecule, the IC50 [4] was 13.5 nM, the “effect on cell viability” value [5] was “without affecting cell viability” and the IC50 [6] was 3.4 nM. For the same molecule, the “levels of fecal BAs” value [7] was “did not change”, the “urine excretion of BAs compared with vehicle” value [7] was “tended to increase” and the “serum BAs at 24 hours post-dose” value ([7]; 10 mg/kg) was “returned to baseline”. The “serum BAs at 24 hours post-dose” value ([7]; 30 mg/kg) was “still being elevated”, the “duration of increases in serum BAs” value ([7]; 10 and 30 mg/kg, Day 1 and Day 5) was “at least 8 hours” and the “levels of 7-alpha-hydroxy-4-cholesten-3-one (C4)” value ([7]; after 5 days of repeated dosing) was “did not change”. The “serum BAs” value ([7]; oral dosing, Day 1 and Day 5) was “increased in a dose-dependent manner”.
Molecule `CC(C)OC(=O)OCOP(=O)(CO[C@H](C)Cn1cnc2c(N)ncnc21)OCOC(=O)OC(C)C` [Tenofovir disoproxil fumarate, reference compound] has a CC50 at 10 days ([8]; Study #01, 18 h post-infection section) of over 1000 nM, a CC50 at 10 days ([8]; Study #01, XTT, PHH) of over 1000 nM and a CC50 at 10 days ([8]; Study #02) of over 100 nM. For the same molecule, the CC50 at 10 days ([8]; Study #03) was over 100 nM, the EC50 ([9]; HepG2, 18 h, Study #01, compound given 18 h post-infection) was 20 nM and the EC50 ([9]; HepG2, Study #01, compound given 18 h prior to infection, PHH, HBV DNA) was 43 nM. The EC50 ([9]; HepG2, Study #02, PHH) was 64 nM, the EC50 ([9]; HepG2, Study #03, PHH) was 59 nM and the “antiviral activity/potency when given 18 h post-infection” value ([9]; Study #01) was “maintained”. For the same molecule, the Max inhibition ([9]; Study #01, 18 h post-infection) was 97%, the Max inhibition ([9]; Study #01, 18 h prior to infection) was 96% and the Max inhibition ([9]; Study #02) was 68%. The Max inhibition ([9]; Study #03) was 61% and the Max inhibition ([9]; Study #03, listed as tenofovir) was about 60%.
